Measured values: ChEMBL document CHEMBL1949543, “Synthesis and evaluation of novel monosubstituted sulfonylurea derivatives as antituberculosis agents” (Eur J Med Chem, 2012)
In brackets after ≈: the same amount, converted by molar mass.

Experiments:
[1] = Selectivity ratio of IC50 for human THP1 cells to MIC for isoniazid-, rifampin-,streptomycin-resistant Mycobacterium tuberculosis isolate E; assay type: functional, THP-1
[2] = system: Mycobacterium tuberculosis; test: Antituberculosis activity against isoniazid-, rifampin-, amikacin-, OLF-resistant Mycobacterium tuberculosis isolate H; assay type: functional
[3] = system: Mycobacterium tuberculosis; test: Antituberculosis activity against isoniazid-resistant Mycobacterium tuberculosis isolate B; assay type: functional
[4] = Selectivity ratio of IC50 for human THP1 cells to MIC for isoniazid-, rifampin-, amikacin-, OLF-resistant Mycobacterium tuberculosis isolate H; assay type: functional, THP-1
[5] = system: Mycobacterium tuberculosis; test: Antituberculosis activity against isoniazid-, rifampin-,ethambutol-resistant Mycobacterium tuberculosis isolate F; assay type: functional
[6] = system: Mycobacterium tuberculosis; test: Antituberculosis activity against isoniazid-, rifampin-, amikacin-, OLF-resistant Mycobacterium tuberculosis isolate J; assay type: functional
[7] = Selectivity ratio of IC50 for human THP1 cells to MIC for isoniazid-, rifampin-,ethambutol-resistant Mycobacterium tuberculosis isolate G; assay type: functional, THP-1
[8] = Selectivity ratio of IC50 for human THP1 cells to MIC for isoniazid-, rifampin-,kanamycin-,OLF-resistant Mycobacterium tuberculosis isolate I; assay type: functional, THP-1
[9] = Selectivity ratio of IC50 for human THP1 cells to MIC for INH-resistant Mycobacterium tuberculosis isolate B; assay type: functional, THP-1
[10] = system: Mycobacterium tuberculosis; test: Antituberculosis activity against isoniazid-, rifampin-,kanamycin-,OLF-resistant Mycobacterium tuberculosis isolate I; assay type: functional
[11] = system: Mycobacterium tuberculosis; test: Antituberculosis activity against isoniazid-, rifampin-resistant Mycobacterium tuberculosis isolate D; assay type: functional
[12] = Selectivity ratio of IC50 for human THP1 cells to MIC for isoniazid-, rifampin-, amikacin-, OLF-resistant Mycobacterium tuberculosis isolate J; assay type: functional, THP-1
[13] = Selectivity ratio of IC50 for human THP1 cells to MIC for isoniazid-, rifampin-resistant Mycobacterium tuberculosis isolate D; assay type: functional, THP-1
[14] = Selectivity ratio of IC50 for human THP1 cells to MIC for isoniazid-, rifampin-,ethambutol-resistant Mycobacterium tuberculosis isolate F; assay type: functional, THP-1
[15] = system: Mycobacterium tuberculosis; test: Antituberculosis activity against isoniazid-, rifampin-,ethambutol-resistant Mycobacterium tuberculosis isolate G; assay type: functional
[16] = system: Mycobacterium tuberculosis; test: Antituberculosis activity against isoniazid-resistant Mycobacterium tuberculosis isolate C; assay type: functional
[17] = Selectivity ratio of IC50 for human THP1 cells to MIC for INH-resistant Mycobacterium tuberculosis isolate C; assay type: functional, THP-1
[18] = system: Mycobacterium tuberculosis; test: Antituberculosis activity against isoniazid-, rifampin-,streptomycin-resistant Mycobacterium tuberculosis isolate E; assay type: functional

SMILES: COc1ccnc(NC(=O)NS(=O)(=O)c2cc(NC(=O)CCl)ccc2Cl)n1
- Selectivity ratio [1]: 10
- MIC [2]: 10 µg/mL (≈ 23 µM)
- MIC [3]: 10 µg/mL (≈ 23 µM)
- Selectivity ratio [4]: 10
- MIC [5]: 10 µg/mL (≈ 23 µM)
- MIC [6]: 10 µg/mL (≈ 23 µM)
- Selectivity ratio [7]: 10
- Selectivity ratio [8]: 10
- Selectivity ratio [9]: 10
- MIC [10]: 10 µg/mL (≈ 23 µM)
- MIC [11]: 10 µg/mL (≈ 23 µM)
- Selectivity ratio [12]: 10
- Selectivity ratio [13]: 10
- Selectivity ratio [14]: 10
- MIC [15]: 10 µg/mL (≈ 23 µM)
- MIC [16]: 10 µg/mL (≈ 23 µM)
- Selectivity ratio [17]: 10
- MIC [18]: 10 µg/mL (≈ 23 µM)

SMILES: Cc1ccnc(NC(=O)NS(=O)(=O)c2cc(NC(=O)CCl)ccc2Cl)n1
- Selectivity ratio [1]: 10
- MIC [2]: 10 µg/mL (≈ 23.9 µM)
- MIC [3]: 10 µg/mL (≈ 23.9 µM)
- Selectivity ratio [4]: 10
- MIC [5]: 10 µg/mL (≈ 23.9 µM)
- MIC [6]: 10 µg/mL (≈ 23.9 µM)
- Selectivity ratio [7]: 10
- Selectivity ratio [8]: 10
- Selectivity ratio [9]: 10
- MIC [10]: 10 µg/mL (≈ 23.9 µM)
- MIC [11]: 10 µg/mL (≈ 23.9 µM)
- Selectivity ratio [12]: 10
- Selectivity ratio [13]: 10
- Selectivity ratio [14]: 10
- MIC [15]: 10 µg/mL (≈ 23.9 µM)
- MIC [16]: 10 µg/mL (≈ 23.9 µM)
- Selectivity ratio [17]: 10
- MIC [18]: 10 µg/mL (≈ 23.9 µM)
